According to US5470854A, “2-phenylbenzo[B]furans, process for their manufacture and pharmaceutical preparations containing them” (Schering Aktiengesellschaft, priority 1991, dated 1995):

What was measured:
uterus of infantile mice [1] = test: Anti-uterotrophic test (in-vivo test on infantile mice); conditions: simultaneous 0.4 μg oestron/animal/day; for anti-uterotrophic test, effect: uterus dry weight (mg)/body weight (g) × 100
Protocol: (§1) The effectiveness of these compounds was found in an in-vivo test on infantile mice. This test is extensively described in Cancer Treatment Reviews 1984, 11, 147, and J. Med. Chem., 1984, 27, 1439.
(§2) ^a dosage/animal, administered s.c. on three consecutive days in oliv
(§3) ^b uterus dry weight (mg)/body weight (g) × 100, determined 24
(§4) hours after the final injection.
^c simultaneous administration of 0.4 μg oestron/animal/day.

oestrogen receptor = target: T1, oestrogen receptor (Bos taurus, UniProt P49884); test: Relative bonding affinity to the oestrogen receptor (competition with 3H-17β-Estradiol); type: binding, calf; conditions: calves' uteri; in relation to 17β-estradiol = 100
T1 construct: oestrogen receptor of a calf's uterus; from tissue; host or cells: calf uterus
T1 sequence (P49884 1-596): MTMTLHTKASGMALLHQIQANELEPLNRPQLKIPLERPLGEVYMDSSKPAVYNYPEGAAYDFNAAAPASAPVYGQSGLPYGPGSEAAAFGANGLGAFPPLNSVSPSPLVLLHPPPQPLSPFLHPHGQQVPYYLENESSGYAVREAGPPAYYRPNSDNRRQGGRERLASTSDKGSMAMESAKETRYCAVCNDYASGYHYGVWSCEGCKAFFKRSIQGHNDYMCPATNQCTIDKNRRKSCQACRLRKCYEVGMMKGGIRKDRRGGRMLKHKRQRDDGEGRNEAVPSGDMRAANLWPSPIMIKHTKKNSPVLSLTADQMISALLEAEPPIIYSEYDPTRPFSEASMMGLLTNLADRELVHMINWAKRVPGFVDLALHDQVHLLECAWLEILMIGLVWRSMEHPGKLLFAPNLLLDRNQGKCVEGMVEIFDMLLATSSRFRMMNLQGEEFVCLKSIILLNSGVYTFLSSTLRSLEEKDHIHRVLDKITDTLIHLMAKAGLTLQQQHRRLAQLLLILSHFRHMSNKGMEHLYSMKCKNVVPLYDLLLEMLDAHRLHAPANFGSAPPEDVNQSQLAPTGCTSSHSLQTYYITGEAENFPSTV
From the text: The test methodology is described in Cancer Treatment Reviews 1984, 11, 147.
*Relative bonding affinities to the oestrogen receptor of calves' uteri,
in relation to 17β-estradiol = 100

[2] = test system: human MCF-7 mamma carcinoma cells; test: Effect on cell growth of MCF-7 cells; type: cell-based
Protocol: Data given as corrected T/C values (%).
^a Inhibiting effect on MCF7 cells: quotient of optical densities fro
standard deviation through error reckoning according to GAUSS.
^b Substance concentration (mol/1) in incubation medium.
^c Significant p < 0.01 in relation to control group (C).

uterus of infantile mice [3] = test: Uterotrophic test (in-vivo test on infantile mice); conditions: uterus dry weight (mg)/body weight (g) × 100
Protocol: as §1, §2, §3, §4

Structure (SMILES): Oc1ccc(-c2oc3ccc(O)cc3c2CCCCCCN2CCCCC2)cc1 [Compound 68a, 5-hydroxy-2-(4-hydroxyphenyl)-3-(6-N-piperidylhexyl)benzo[b]furan]
- anti-uterotrophic test, inhibition (uterus of infantile mice [1]; 5 μg/animal s.c.): 55%
- anti-uterotrophic test, inhibition (uterus of infantile mice [1]; 25 μg/animal s.c.): 56%
- anti-uterotrophic test, inhibition (uterus of infantile mice [1]; 125 μg/animal s.c.): 48%
- anti-uterotrophic test, effect (uterus of infantile mice [1]; 5 μg/animal s.c.): 38.1 ± 7.5 mg/g × 100
- anti-uterotrophic test, effect (uterus of infantile mice [1]; 25 μg/animal s.c.): 37.6 ± 6.2 mg/g × 100
- anti-uterotrophic test, effect (uterus of infantile mice [1]; 125 μg/animal s.c.): 41.8 ± 6.4 mg/g × 100
- RBA* (relative bonding affinity to the oestrogen receptor) (oestrogen receptor): 4,3
- effect on the growth of MCF-7 / hormone-dependent tumour cells, in words [2]: strongly inhibiting effect
- activity at 10 µM ([2]; Homo sapiens, MCF7, 1 × 10^-5 M, mean of 16 individual results, read-out: T/C (corrected)): -9.9 ± 1.8%
- activity at 1 µM ([2]; Homo sapiens, MCF7, 1 × 10^-6 M, mean of 16 individual results, read-out: T/C (corrected)): 51.6 ± 10.2%
- activity at 0.1 µM ([2]; Homo sapiens, MCF7, 1 × 10^-7 M, mean of 16 individual results, read-out: T/C (corrected)): 64.4 ± 12%
- activity at 5 µM ([2]; Homo sapiens, MCF7, 5 × 10^-6 M, mean of 16 individual results, read-out: T/C (corrected)): 10.4 ± 4.8%
- uterotrophic test, effect (uterus of infantile mice [3]; 1 μg/animal s.c. on three consecutive days): 16.1 ± 2.1 mg/g × 100
- uterotrophic test, effect (uterus of infantile mice [3]; 5 μg/animal s.c. on three consecutive days): 17.3 ± 2.9 mg/g × 100
- uterotrophic test, effect (uterus of infantile mice [3]; 25 μg/animal s.c. on three consecutive days): 15.8 ± 1.9 mg/g × 100
- uterotrophic test, effect (uterus of infantile mice [3]; 125 μg/animal s.c. on three consecutive days): 17.3 ± 3.2 mg/g × 100
